Measurements taken from patent US7576094B2, “Spiro derivatives as lipoxygenase inhibitors” (Eli Lilly and Company, priority 2004, dated 2009).

Assays:
[1] = target: T1, porcine leukocyte 12/15-Lipoxygenase (Sus scrofa, UniProt P16469); experiment: 12/15-Lipoxygenase Enzyme Assay; assay type: biochemical; conditions: 70 μM arachidonic acid, 10 minute incubation at room temperature, FOX reagent, absorbance at 620 nm; read-out: inhibition of 12/15-Lipoxygenase with an IC50
T1 sequence (P16469 1-663): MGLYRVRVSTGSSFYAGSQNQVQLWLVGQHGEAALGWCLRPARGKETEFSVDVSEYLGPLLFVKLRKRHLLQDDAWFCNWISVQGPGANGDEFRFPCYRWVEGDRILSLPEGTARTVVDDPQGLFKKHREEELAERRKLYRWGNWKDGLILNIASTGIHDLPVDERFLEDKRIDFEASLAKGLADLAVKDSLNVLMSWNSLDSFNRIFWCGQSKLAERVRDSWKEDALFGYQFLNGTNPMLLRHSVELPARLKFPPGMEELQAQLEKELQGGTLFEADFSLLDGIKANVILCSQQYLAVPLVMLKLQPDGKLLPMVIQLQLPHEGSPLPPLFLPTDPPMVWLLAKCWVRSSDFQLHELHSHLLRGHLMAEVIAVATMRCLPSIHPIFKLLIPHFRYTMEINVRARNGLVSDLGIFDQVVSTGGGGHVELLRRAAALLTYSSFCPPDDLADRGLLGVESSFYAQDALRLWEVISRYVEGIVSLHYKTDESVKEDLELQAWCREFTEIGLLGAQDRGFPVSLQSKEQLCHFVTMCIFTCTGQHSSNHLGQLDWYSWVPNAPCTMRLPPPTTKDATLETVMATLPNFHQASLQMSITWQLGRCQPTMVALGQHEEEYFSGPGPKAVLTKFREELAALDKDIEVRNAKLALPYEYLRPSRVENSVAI

[2] = test system: release of the leukotriene LTB4 from a neutrophil cell line (MPRO cell line); experiment: LTB4-Cell Assay; assay type: cell-based; conditions: Mus musculus, 1 h, read-out: inhibition of LTB4 with an EC50
In short: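 Mouse promyelocytic cells differentiated to neutrophils with 10 μM all-trans retinoic acid for 72 h, then stimulated with 1 μM A23187 plus compound for 1 h at 37° C. Supernatant LTB4 quantified by competitive EIA; 5 concentrations in quadruplicate from 10 μM top.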

With `Cc1c(O)cc2c(c1C)OC1(CCC1)CC2` [7,8-dimethyl-3,4-dihydrospiro[chromene-2,1′-cyclobutan]-6-ol] the IC50 [1] was < 5 µM and the EC50 [2] was < 5 µM.
With `Cc1c(C)c2c(c(C)c1O)CCC1(CC1)O2` [5,7,8-trimethyl-3,4-dihydrospiro[chromene-2,1′-cyclopropan]-6-ol] the IC50 [1] was < 5 µM and the EC50 [2] was < 5 µM.
For `CO/N=C1\CC2(CCC2)Sc2c(C)c(C)c(O)c(C)c21` [6′-hydroxy-5′,7′,8′-trimethylspiro[cyclobutane-1,2′-thiochroman]-4′(3′H)-one O-methyloxime], the IC50 [1] was < 5 µM and the EC50 [2] was < 5 µM.
For `CCONC1CC2(CCC2)Sc2cc(C)c(O)c(C)c21` (centres unmarked) [4′-(ethoxyamino)-5′,7′-dimethyl-3′,4′-dihydrospiro[cyclobutane-1,2′-thiochromen]-6′-ol], the IC50 [1] was < 5 µM and the EC50 [2] was < 5 µM.
With `CCO/N=C/C1=Cc2c(cc(C)c(O)c2C)OC12CCC2` [6-hydroxy-5,7-dimethylspiro[chromene-2,1′-cyclobutane]-3-carbaldehyde O-ethyloxime] the IC50 [1] was < 5 µM and the EC50 [2] was < 5 µM.
For `Cc1c(C)c2c(c(Cl)c1O)CCC1(CCC1)O2` [5-chloro-7,8-dimethyl-3,4-dihydrospiro[chromene-2,1′-cyclobutan]-6-ol], the IC50 [1] was < 5 µM and the EC50 [2] was < 5 µM.
With `Cc1c(C)c2c(c(C)c1O)C1(CCC1)CC(C)(C)S2` [2′,2′,5′,7′,8′-pentamethyl-2′,3′-dihydrospiro[cyclobutane-1,4′-thiochromen]-6′-ol] the IC50 [1] was < 5 µM and the EC50 [2] was < 5 µM.
For `Cc1cc2c(c(C)c1O)CCC1(CCC1)O2` [5,7-dimethyl-3,4-dihydrospiro[chromene-2,1′-cyclobutan]-6-ol], the IC50 [1] was < 5 µM and the EC50 [2] was < 5 µM.
With `COC(C)C1=Cc2c(C)c(O)c(C)c(C)c2OC12CCC2` (centres unmarked) [3-(1-methoxyethyl)-5,7,8-trimethylspiro[chromene-2,1′-cyclobutan]-6-ol] the IC50 [1] was < 5 µM and the EC50 [2] was < 5 µM.
With `CONC1CC2(CCC2)Sc2cc(C)c(O)c(C)c21` (centres unmarked) [4′-(methoxyamino)-5′,7′-dimethyl-3′,4′-dihydrospiro[cyclobutane-1,2′-thiochromen]-6′-ol] the IC50 [1] was < 5 µM and the EC50 [2] was < 5 µM.
For `Cc1c(C)c2c(c(C)c1O)C1(CCC1)CCS2` [5′,7′,8′-trimethyl-2′,3′-dihydrospiro[cyclobutane, 1,4′-thiochromen]-6′-ol], the IC50 [1] was < 5 µM and the EC50 [2] was < 5 µM.
With `CONC1CC2(CCC2)Sc2c(C)c(C)c(O)c(C)c21` (centres unmarked) [4′-(methoxyamino)-5′,7′,8′-trimethyl-3′,4′-dihydrospiro[cyclobutane-1,2′-thiochromen]-6′-ol] the IC50 [1] was < 5 µM and the EC50 [2] was < 5 µM.
In the case of `CCONC1CC2(CCC2)Sc2c(C)c(C)c(O)c(C)c21` (centres unmarked) [4′-(ethoxyamino)-5′,7′,8′-trimethyl-3′,4′-dihydrospiro[cyclobutane-1,2′-thiochromen]-6′-ol], the IC50 [1] is reported as < 5 µM and the EC50 [2] is reported as < 5 µM.
With `Cc1cc2c(c(C)c1O)CC1(CCC1)CO2` [5,7-dimethylspiro[chroman-3,1′-cyclobutan]-6-ol] the IC50 [1] was < 5 µM and the EC50 [2] was < 5 µM.
`CCc1cc2c(c(CC)c1O)CC(CSCC(=O)OC)C1(CCC1)O2` (centres unmarked) [methyl 2-((5,7-diethyl-6-hydroxyspiro[chroman-2,1′-cyclobutane]-3-yl)methylthio)acetate] was tested, and the IC50 [1] was < 5 µM and the EC50 [2] was < 5 µM.
With `CC(C)(C)c1cc2c(cc1O)CCC1(CCC1)O2` [7-tert-butyl-3,4-dihydrospiro[chromene-2,1′-cyclobutan]-6-ol] the IC50 [1] was < 5 µM and the EC50 [2] was < 5 µM.
In the case of `CCONCC1=Cc2c(cc(C)c(O)c2C)OC12CCC2` [3-[(ethoxyamino)methyl]-5,7-dimethylspiro[chromene-2,1′-cyclobutan]-6-ol], the IC50 [1] is reported as < 5 µM and the EC50 [2] is reported as < 5 µM.
With `Cc1c(O)c(C(C)(C)C)cc2c1CCC1(CCC1)O2` [7-tert-butyl-5-methyl-3,4-dihydrospiro[chromene-2,1′-cyclobutan]-6-ol] the IC50 [1] was < 5 µM and the EC50 [2] was < 5 µM.
In the case of `Cc1cc2c(c(C)c1O)C=CC1(CCC1)O2` [5,7-dimethylspiro[chromene-2,1′-cyclobutan]-6-ol], the IC50 [1] is reported as < 5 µM and the EC50 [2] is reported as < 5 µM.
